The record followed here is patent US20220306617A1, “SUBSTITUTED 1,3-PHENYL HETEROARYL DERIVATIVES AND THEIR USE IN THE TREATMENT OF DISEASE” (NOVARTIS AG, priority 2019, published 2022).

The target in the assay is T1, abc isoform of human TMEM16A channel expressed in CHO cells (Homo sapiens, UniProt Q5XXA6, DEL476-501).
T1 construct: expressed in transfected cells; host or cells: CHO cells, doxycycline-inducible expression under Blasticidin/Zeocin selection
T1 sequence (Q5XXA6 with tags, fused parts or gaps isoform Q5XXA6-5 DEL539-564): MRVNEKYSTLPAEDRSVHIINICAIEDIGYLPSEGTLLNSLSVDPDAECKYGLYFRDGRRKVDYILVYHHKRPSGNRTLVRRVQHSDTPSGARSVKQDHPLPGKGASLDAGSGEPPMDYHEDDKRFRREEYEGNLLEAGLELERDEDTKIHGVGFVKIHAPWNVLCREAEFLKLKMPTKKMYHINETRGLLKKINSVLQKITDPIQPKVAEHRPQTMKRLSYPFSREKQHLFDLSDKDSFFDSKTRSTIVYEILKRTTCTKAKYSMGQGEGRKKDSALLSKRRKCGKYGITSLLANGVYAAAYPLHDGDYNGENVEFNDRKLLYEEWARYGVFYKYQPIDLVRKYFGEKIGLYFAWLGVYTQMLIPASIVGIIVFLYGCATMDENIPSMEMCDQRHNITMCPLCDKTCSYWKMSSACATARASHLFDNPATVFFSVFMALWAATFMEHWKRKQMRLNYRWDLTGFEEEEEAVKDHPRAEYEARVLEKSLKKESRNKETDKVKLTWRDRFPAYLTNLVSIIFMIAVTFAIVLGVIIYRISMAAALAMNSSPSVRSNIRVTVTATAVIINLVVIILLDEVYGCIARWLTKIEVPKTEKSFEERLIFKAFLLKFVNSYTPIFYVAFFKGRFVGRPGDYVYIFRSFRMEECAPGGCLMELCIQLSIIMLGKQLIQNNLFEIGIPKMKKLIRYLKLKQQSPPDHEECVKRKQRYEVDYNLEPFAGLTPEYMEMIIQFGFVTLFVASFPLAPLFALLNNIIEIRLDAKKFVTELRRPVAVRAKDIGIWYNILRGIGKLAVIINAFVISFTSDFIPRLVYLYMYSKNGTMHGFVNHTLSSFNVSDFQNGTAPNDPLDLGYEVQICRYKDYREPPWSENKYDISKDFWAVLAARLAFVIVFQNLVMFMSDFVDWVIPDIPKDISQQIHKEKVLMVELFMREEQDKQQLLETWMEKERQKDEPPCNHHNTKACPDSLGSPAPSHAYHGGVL
In words: Automated patch clamping (QPatch) assay to measure TMEM16A activity in whole-cell. In kind it is cell-based. Particulars: for EC50: CHO cells expressing human TMEM16A (abc), whole-cell automated patch clamp, Hill fit, read-out: TMEM16A QPATCH assay EC50 V3 EC50; for Emax: CHO, maximum current at highest dose relative to reference potentiator at maximal concentration (upper limit) and vehicle (lower limit), read-out: TMEM16A QPATCH assay EC50 V3 Assay Window (% TMEM16A max activation). A digest of the protocol: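 CHO cells with doxycycline-induced (1 μg/mL, 18-24 h) human TMEM16A abc isoform; QPatch whole-cell recording, hold −70 mV, step +70 mV 1500 ms, then −90 to +70 mV ramp. Compounds in 0.3% DMSO; EC50 by Hill fit; % max activation relative to vehicle baseline and reference potentiator maximum.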
Background: In patch-clamp work, channel activity is measured electrically.

Usually EC50 stands for the concentration that produces a half-maximal response. In the case of `CCC(CC)NC(=O)c1cnc(-c2cccc(-c3cn(CC(O)C(F)(F)F)c(C(=O)N[C@@H](C)C4CC4)n3)c2)o1` (stereo partly drawn) [Example 17.0, 2-(3-(2-(((S)-1-Cyclopropylethyl)Carbamoyl)-1-(3,3,3-Trifluoro-2-Hydroxypropyl)-1H-Imidazol-4-Yl)Phenyl)-N-(Pentan-3-Yl)Oxazole-5-Carboxamide], the EC50 came out at 0.79 µM and the Emax worked out at 186%.
With `CCC(CC)NC(=O)c1cnc(-c2cccc(-c3ncc(C(=O)NC(CC)CC)o3)c2)o1` [Example 18.0, 2,2′-(1,3-Phenylene)Bis(N-(Pentan-3-Yl)Oxazole-5-Carboxamide)], the EC50 was determined as 0.14 µM and the Emax worked out at 97%.
